{"source": "patent US11879142B2", "about": "“Bioactive peptide molecules discovered by a combination of bioinformatics technique and chemical synthesis” (Purdue Research Foundation, priority 2021, dated 2024)", "key": {"[1]": {"system": "ESKAPE pathogens", "assay": "CLSI microbroth dilution antibacterial assay", "format": "cell-based", "description": "Bioactivity testing. Initial compounds were tested for activity against antibiotic sensitive and antibiotic resistant ESKAPE pathogens at concentrations varying between 0.5 and 32 μg/mL using the CLSI microbroth dilution assay.^47 Any well with greater than 90% death was considered a hit.\n(§1) Bacterial Strains. All strains used in this study except the Bacillus strain and the colistin resistant E. coli strains were obtained from Professor Paul Hergenrother (UIUC). The Bacillus strain was obtained from Professor William Metcalf (UIUC). The colistin resistant E. coli strains (AR Bank Number 0346, 0349, and 0350) were obtained from the CDC AR Isolate bank). E. coli ATCC 25922 (wild type, WT) BAA-2469 (resistant, R), colistin resistant E. coli, K pneumonia ATCC 27736 (WT) and BAA-2146 (R), A. baumannii ATCC 19606 (WT) and KB349 (R), and P. aeruginosa PAO1 (WT) and PA1000 (R) were grown on Mueller Hinton Broth 2 (Sigma Aldrich). S. aureus ATCC 29213 (WT) and NRS3 (R), Enterococcus species ATCC 19433 (WT) and 5235 (R), and B. subtilis 6633 (WT) were maintained on Bacto Brain Heart Infusion.\nAntibacterial activity analysis. […] Testing was performed as previously described.10 Turbidity (OD600) of the wells was determined using a SpectraMax iD3 platereader (Molecular Devices). For the compounds that hit during initial screens, minimum inhibitory concentrations were determined. […]"}, "[2]": {"system": "Colistin-resistant bacteria", "assay": "CLSI microbroth dilution antibacterial assay, colistin-resistant strains", "format": "cell-based, E. coli", "from_the_text": "as §1\nAntibacterial activity analysis. Antibacterial activity analysis for all bacteria was performed using the microdilution broth method as outlined by the Clinical and Laboratory Standards Institute (CLSI).9 Mueller Hinton Broth 2 (MH, Sigma-Aldrich, 90922) was used for all testing. Testing was performed as previously described.10 Turbidity (OD600) of the wells was determined using a SpectraMax iD3 platereader (Molecular Devices). For the compounds that hit during initial screens, minimum inhibitory concentrations were determined. A minimum of three biological replicates were performed. […]"}, "[3]": {"system": "A549 non-small cell lung cancer cell line", "assay": "Alamar blue viability assay", "format": "cell-based, human", "conditions": "16 ug/mL, 48 hours", "description": "Anticancer Testing. A549 non-small cell lung cancer cells (ATCC CCL-185) were obtained directly from ATCC and used within 30 passages. A549 cells were maintained in RPMI 1640 medium supplemented with 10% fetal bovine serum, 100 U/mL penicillin, and 100 ug/mL streptomycin. For anticancer testing, cells were seeded at 2000 cells per well in 96 well plates and allowed to adhere overnight. Cells were then treated with compound at 16 ug/mL (1% DMSO final) or vehicle control for 48 hours. Viability was assessed using Alamar Blue. Specifically, resazurin (Sigma Aldrich, R7017) was dissolved at 440 μM in sterile PBS. 20 μL was then added to each well and incubated for 4-8 h at 37° C. Fluorescence was measured using a SpectraMax iD3 platereader (Excitation: 550 nm, Emission 590 nm). Percent death was calculated by subtracting the background from all wells and setting 0% death to vehicle treated controls."}}, "note": "Non-standard residues stand in square brackets, D forms with d. Residues, ends and D or L forms follow the SMILES beside them. dOrn = NCCC[C@@H](N)C(=O)O", "data": [{"smiles": "CC(C)[C@@H]1NC(=O)[C@@H](CCCNC(=N)N)NC(=O)[C@H]([C@@H](C)O)NC(=O)[C@@H](CCCN)NC(=O)[C@H](Cc2ccccc2)NC(=O)[C@@H](Cc2ccccc2)NC1=O", "note": "[pNP-43] (cyclo(F[dOrn]T[dR]V[dF]))", "values": [{"measurement": "antibacterial activity (in words)", "setting": "[1]", "value": "activity against several Gram-negative bacteria"}, {"measurement": "susceptibility of colistin-resistant bacteria", "setting": "[2]", "value": "resistant"}, {"measurement": "toxicity to A549 cells", "setting": "[3]", "value": "no observed hemolytic activity or mammalian cell toxicity"}]}]}
